Values of other authors, collected in patent EP4046639A1, “PREVENTION OF PULMONARY VASCULAR LEAK IN COVID-19” (priority 2021, dated 2022).
Like-named read-outs stand apart in the source and are kept apart here.

Test system: Covid-19

SMILES: C[C@@H]1C[C@H]2[C@@H]3CCC4=CC(=O)C=C[C@]4(C)[C@@]3(F)[C@@H](O)C[C@]2(C)[C@@]1(O)C(=O)CO [Dexamethason]
- Covid-19 mortality (hospitalized patients, reduced from 24): 20%
- Covid-19 mortality (patients in the intensive care unit (ICU), reduced from 40): 30%
